Here are results for three substances from patent US7915276B2, “Berberrubine derivatives having antifungal activities” (priority 2006, dated 2011).

In one series the test system is human pathogenic fungi. The experiment in a line: Antifungal activity against human pathogenic fungi (summary statements). It is filed as cell-based. The text has this:
Candida albicans ATCC 10231, Candida lusitaniae ATCC 42720, Candida krusei ATCC 6258, Candida tropicalis ATCC 13803, Candida glabrata ATCC 48435, Candida parapsilosis ATCC 34136, Cryptococcus neoformans ATCC 36556, Aspergillus fumigatus ATCC 16424, Aspergillus flavus ATCC 64025, Aspergillus terreus ATCC 46941 and Mucor ramosissimus ATCC 90286 strains for the MIC (minimum inhibitory concentration) measurement were obtained from ATCC (American Type Culture Collection) in the U.S. The Candida albicans A207(clinical isolate) strain was used by isolating it from the patients.
The determination of MIC was performed according to the NCCLS (National Committee for Clinical Laboratory Standard) method. Each test sample solution was diluted two-fold and inoculated with a fungal suspension to reach a final inoculum size of 5×10^2 to 2.5×10^3 cell/mL. The Cryptococcus neoformans strain was cultured in the RPMI 1640 medium for 72 hours. Other strains were cultured for 48 hours.

Series [1] addresses T1, chitin synthase 1 of Candida albicans chs2 Δ chs 3 Δ (Candida albicans, UniProt P23316).
T1 construct: Crude enzyme was prepared using the Candida albicans chs2 Δ chs 3 Δ mutant; endogenous in cells; host or cells: Candida albicans chs2Δ/chs2Δ chs3Δ/chs3Δ mutant; 130,000 x g membrane pellet
The experiment in a line: In vitro enzyme assay for chitin synthase 1 of Candida albicans (enzyme 1). In kind it is biochemical. The settings on record: relative to polyoxin D (50% inhibitory activity = value 5). Put shortly: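 Crude membrane enzyme from the C. albicans chs2Δ chs3Δ strain was trypsin-activated for 15 min at 30 °C. Reaction: 32 mM Tris-HCl pH 7.5, 2 mM cobalt acetate, 1.1 mM UDP-[14C]GlcNAc, 90 min at 30 °C; TCA-insoluble radioactivity counted. Scored 1–8 by relative polyoxin D concentration (5 = equal).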

The next series has as its system chitin synthases. Kind of series: Inhibitory activity against the chitin synthases (summary statements). In kind it is biochemical. From the text: The inhibitory activities against the chitin synthase 1 of Candida albicans chs2 Δ chs 3 Δ (abbreviated as ‘enzyme 1’) and the chitin synthase 2 of Saccharomyces cerevisiae ECY38-38A(pAS6)(abbreviated as ‘enzyme 2’) was examined for compound Nos. 1 to 70 compound and polyoxin D, a positive control compound.
The inhibitory activity against the chitin synthase 1 prepared from Candida albicans and the chitin synthase 2 prepared from Saccharomyces cerevisiae were examined as follows. A reaction mixture containing 32 mM Tris-HCl (pH 7.5), 2 mM cobalt acetate, 1.1 mM UDP-[U-^14C]-N-acetyl-d-glucosamine (GlcNAc) (400,000 cpm/μmol), 2 μL of trypsin (0.75 mg/mL), 20 μL of each crude enzyme and 14 μL of each test sample was kept at 30° C. for 15 minutes to activate the enzyme. Then, 2 μL of trypsin inhibitor (1.5 mg/mL) was added and the mixture was kept in an ice bath for 10 minutes to deactivate trypsin. 2 μL of 0.8 M N-acetyl-d-glucosamine was added to a total volume of 50 μL and reaction was performed at 30° C. for 90 minutes. The reaction was stopped using 1 mL of 10% TCA solution and the reaction solution was filtered with a GF/C filter and dried at room temperature. After adding 3 mL of a scintillation cocktail solution, the amount of isotopes was measured using a liquid scintillation counter. Percentage inhibition against each enzyme was calculated by the following Equation 1.

Series [2] addresses T2, chitin synthase 2 of Saccharomyces cerevisiae ECY38-38A(pAS6) (Saccharomyces cerevisiae, UniProt P14180).
T2 construct: made in house; host or cells: Saccharomyces cerevisiae ECY38-38A (chs1-23 chs2::LEU2 cal1/csd2) carrying plasmid pAS6, grown in galactose medium; 130,000 x g membrane pellet
Kind of series: In vitro enzyme assay for chitin synthase 2 of Saccharomyces cerevisiae (enzyme 2). Conditions: relative to polyoxin D (50% inhibitory activity = value 5). It is filed as biochemical. Put shortly:
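Crude membrane chitin synthase 2 came from S. cerevisiae ECY38-38A(pAS6), expressing only CHS2, and was trypsin-activated (15 min, 30 °C) then trypsin-inhibited. The reaction ran in 32 mM Tris-HCl pH 7.5, 2 mM cobalt acetate, 1.1 mM UDP-[14C]-GlcNAc, 90 min at 30 °C. TCA-precipitated product was counted by scintillation; scores 1–8 reflect concentration relative to polyoxin D's 50% inhibition (score 5).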

Series [3] concerns Candida albicans A207 (clinical isolate). The experiment in a line: In vitro antifungal activity (MIC), NCCLS method. It is filed as cell-based. Conditions: 48 hours. In short, it runs like this: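 Two-fold dilutions, final inoculum 5×10^2–2.5×10^3 cell/mL, NCCLS protocol; 48 h culture for these strains. MIC = minimum inhibitory concentration.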
In series [4] the test system is Candida parapsilosis ATCC 34136. The experiment in a line: In vitro antifungal activity (MIC), NCCLS method. It is filed as cell-based. The settings on record: Candida parapsilosis ATCC 34136; 48 hours. In short, it runs like this: (§1)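 Test samples were serially diluted two-fold, then inoculated with fungus to a final cell density of 5×10^2 to 2.5×10^3 cell/mL, following the NCCLS method. Plates were cultured for 48 hours and the minimum inhibitory concentration recorded.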

The subject of series [5] is Aspergillus terreus ATCC 46941. Kind of series: In vitro antifungal activity (MIC), NCCLS method. In kind it is cell-based. Conditions: 48 hours. In short, it runs like this:
as §1

The subject of series [6] is Candida glabrata ATCC 48435. Kind of series: In vitro antifungal activity (MIC), NCCLS method. Conditions: Candida glabrata ATCC 48435; 48 hours. It is filed as cell-based. Put shortly: as §1
For series [7], the system named is Candida albicans ATCC 10231. The experiment in a line: In vitro antifungal activity (MIC), NCCLS method. The settings on record: 48 hours. In kind it is cell-based. Put shortly: as §1
Series [8] deals with Aspergillus flavus ATCC 64025. The experiment in a line: In vitro antifungal activity (MIC), NCCLS method. In kind it is cell-based. Conditions: 48 hours. Put shortly:
as §1

In series [9] the test system is Candida tropicalis ATCC 13803. Kind of series: In vitro antifungal activity (MIC), NCCLS method. In kind it is cell-based. The settings on record: 48 hours. In short, it runs like this: as §1
For another series, the system named is Candida krusei ATCC 6258. The experiment in a line: In vitro antifungal activity (MIC), NCCLS method. It is filed as cell-based. The settings on record: 48 hours. Put shortly: as §1
In series [10] the test system is Cryptococcus neoformans ATCC 36556. The experiment in a line: In vitro antifungal activity (MIC), NCCLS method. Conditions: RPMI 1640 medium, 72 hours. In kind it is cell-based. In short, it runs like this: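 Broth microdilution per NCCLS: two-fold serial dilutions of test compound inoculated with fungal suspension at a final 5×10^2 to 2.5×10^3 cell/mL. Strains other than Cryptococcus neoformans were incubated 48 hours before MIC reading.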

The test system of series [11] is Candida lusitaniae ATCC 42720. The experiment in a line: In vitro antifungal activity (MIC), NCCLS method. In kind it is cell-based. The settings on record: 48 hours. In short, it runs like this: as §1
Series [12] relates to Mucor ramosissimus ATCC 90286. Kind of series: In vitro antifungal activity (MIC), NCCLS method. It is filed as cell-based. Conditions: 48 hours. In short, it runs like this:
as §1

Series [13] has as its system Aspergillus fumigatus ATCC 16424. Kind of series: In vitro antifungal activity (MIC), NCCLS method. It is filed as cell-based. The settings on record: 48 hours. Put shortly:
as §1

A short description of a further series: Acute toxicity in mice. In kind it is in vivo, ICR mice. The settings on record: for Acute toxicity LD50: ICR mouse, male. As to the method:
Each compound was suspended in 1% carboxymethylcellulose (CMC), and orally and abdominally administered to 6-week-old male ICR mice. […] Then, an autopsy was performed on the mice.

Bounds are passed on as bounds.

T1 sequence (P23316 whole entry, stated change not applied): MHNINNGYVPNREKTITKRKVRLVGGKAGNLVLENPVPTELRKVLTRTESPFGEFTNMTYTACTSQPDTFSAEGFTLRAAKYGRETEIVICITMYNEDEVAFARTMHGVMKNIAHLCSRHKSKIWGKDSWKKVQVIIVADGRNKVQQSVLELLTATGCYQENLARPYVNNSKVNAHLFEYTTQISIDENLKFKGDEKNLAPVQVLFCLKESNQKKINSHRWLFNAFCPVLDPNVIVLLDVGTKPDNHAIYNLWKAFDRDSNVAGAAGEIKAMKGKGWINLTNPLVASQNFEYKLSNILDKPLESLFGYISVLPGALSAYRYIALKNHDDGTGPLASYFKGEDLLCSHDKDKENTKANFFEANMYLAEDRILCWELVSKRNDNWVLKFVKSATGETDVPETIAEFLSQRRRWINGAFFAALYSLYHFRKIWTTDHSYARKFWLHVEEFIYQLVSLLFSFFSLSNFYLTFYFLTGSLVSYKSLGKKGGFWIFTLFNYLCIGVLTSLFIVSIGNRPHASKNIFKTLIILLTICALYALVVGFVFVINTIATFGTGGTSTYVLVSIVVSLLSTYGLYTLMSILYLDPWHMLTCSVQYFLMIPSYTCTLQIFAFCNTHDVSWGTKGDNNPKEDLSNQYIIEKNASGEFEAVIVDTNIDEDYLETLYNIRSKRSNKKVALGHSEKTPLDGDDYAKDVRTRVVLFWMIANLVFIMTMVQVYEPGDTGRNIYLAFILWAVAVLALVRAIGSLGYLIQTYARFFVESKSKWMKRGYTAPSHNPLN
T2 sequence (P14180 whole entry): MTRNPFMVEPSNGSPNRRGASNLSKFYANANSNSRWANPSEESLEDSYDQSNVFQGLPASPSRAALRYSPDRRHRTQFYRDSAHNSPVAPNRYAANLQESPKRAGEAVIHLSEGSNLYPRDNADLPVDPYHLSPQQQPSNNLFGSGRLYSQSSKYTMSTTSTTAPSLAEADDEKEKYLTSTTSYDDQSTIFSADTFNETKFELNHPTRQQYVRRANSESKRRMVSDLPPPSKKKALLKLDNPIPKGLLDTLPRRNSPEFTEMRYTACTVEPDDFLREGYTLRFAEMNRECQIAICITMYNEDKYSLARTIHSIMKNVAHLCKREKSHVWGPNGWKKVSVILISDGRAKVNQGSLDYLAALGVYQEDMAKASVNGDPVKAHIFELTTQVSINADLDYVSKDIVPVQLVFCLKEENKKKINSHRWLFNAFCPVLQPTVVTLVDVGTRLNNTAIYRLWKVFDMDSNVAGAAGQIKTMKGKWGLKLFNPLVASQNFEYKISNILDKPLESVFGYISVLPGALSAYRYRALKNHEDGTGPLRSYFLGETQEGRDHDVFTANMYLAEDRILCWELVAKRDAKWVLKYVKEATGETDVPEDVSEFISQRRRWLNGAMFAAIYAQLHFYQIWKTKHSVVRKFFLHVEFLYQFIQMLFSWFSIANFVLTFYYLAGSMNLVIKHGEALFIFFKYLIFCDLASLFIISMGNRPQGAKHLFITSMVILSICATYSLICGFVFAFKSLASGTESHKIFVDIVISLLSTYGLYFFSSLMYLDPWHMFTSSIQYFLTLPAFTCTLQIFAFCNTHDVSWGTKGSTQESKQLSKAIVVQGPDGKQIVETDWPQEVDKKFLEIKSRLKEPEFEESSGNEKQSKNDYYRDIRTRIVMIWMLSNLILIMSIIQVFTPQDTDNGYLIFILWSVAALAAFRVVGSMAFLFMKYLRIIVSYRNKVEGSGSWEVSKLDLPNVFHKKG

Turning to “13-(4-tert-Butylbenzyl)-9-O-butylberberrubine chloride [Compound No. 40]”, in the series on human pathogenic fungi, the “antifungal activities compared with amphotericin B (in words)” value is “comparable to that of amphotericin B”. Besides, the “Relative activity Enzyme 1” value in series [1] is 4 (Compounds having the inhibitory activity at 2-fold, 4-fold, 8-fold and 16-fold higher concentrations than that of polyoxin D were given the values of 4, 3, 2 and 1, respectively). Besides, the “inhibitory activities against the chitin synthases (in words)” value (shortened to “inhibitory activities”) in the series on chitin synthases was “exceptionally superior inhibitory activities”. Moreover, the “Relative activity Enzyme 2” value in series [2] is 7 (compounds having the inhibitory activity at ½, ¼ and ⅛ lower concentrations than that of polyoxin D were given the values of 6, 7 and 8, respectively). Besides, the “MIC (minimum inhibitory concentration)” value was 0.5 µg/mL in series [3]; 4 µg/mL in series [4]; 8 µg/mL in [5]; 4 µg/mL in series [6]; 0.5 µg/mL in series [7]; 8 µg/mL in series [8]. The “MIC (minimum inhibitory concentration)” value in series [9] was 0.25 µg/mL; in the series with Candida krusei ATCC 6258, 1 µg/mL; in [10] it was 1 µg/mL; in series [11] it was 0.5 µg/mL; in series [12], 4 µg/mL; in [13], 2 µg/mL.
For “13-(4-Isopropylbenzyl)-9-O-butylberberrubine chloride [Compound No. 50]”, the “antifungal activities compared with amphotericin B (in words)” value in the series with human pathogenic fungi is listed as “comparable to that of amphotericin B”. The “Relative activity Enzyme 1” value in series [1] is 4 (Compounds having the inhibitory activity at 2-fold, 4-fold, 8-fold and 16-fold higher concentrations than that of polyoxin D were given the values of 4, 3, 2 and 1, respectively). Also, the “inhibitory activities” value in the series on chitin synthases is recorded as “exceptionally superior inhibitory activities”. Besides, in [2], the “Relative activity Enzyme 2” value was 7 (compounds having the inhibitory activity at ½, ¼ and ⅛ lower concentrations than that of polyoxin D were given the values of 6, 7 and 8, respectively). For the same substance, the “MIC (minimum inhibitory concentration)” value stood at 0.5 µg/mL in [3]; 4 µg/mL in [4]; 8 µg/mL in [5]; 4 µg/mL in [6]; 0.5 µg/mL in series [7]; 8 µg/mL in [8]. The “MIC (minimum inhibitory concentration)” value in series [9] worked out at 0.25 µg/mL; with Candida krusei ATCC 6258 it was 1 µg/mL; in series [10], 1 µg/mL; in series [11] it was 0.5 µg/mL; in series [12], 4 µg/mL; in series [13] it was 2 µg/mL. Also, the “Acute toxicity LD50” value in the series “Acute toxicity in mice” (abdominal) is above 15 mg/kg; in the series “Acute toxicity in mice” (oral), above 1000 mg/kg.
Turning to “13-(4-tert-Butylbenzyl)-9-O-butylberberrubine iodide [Compound No. 8]”, the “antifungal activities compared with amphotericin B (in words)” value in the series on human pathogenic fungi is on record as “comparable to that of amphotericin B”. Moreover, the “Relative activity Enzyme 1” value in series [1] is 4 (Compounds having the inhibitory activity at 2-fold, 4-fold, 8-fold and 16-fold higher concentrations than that of polyoxin D were given the values of 4, 3, 2 and 1, respectively). Also, the “inhibitory activities” value in the series with chitin synthases was “exceptionally superior inhibitory activities”. Also, the “Relative activity Enzyme 2” value in series [2] is 7 (compounds having the inhibitory activity at ½, ¼ and ⅛ lower concentrations than that of polyoxin D were given the values of 6, 7 and 8, respectively). Besides, the “MIC (minimum inhibitory concentration)” value in series [3] stood at 0.5 µg/mL; in series [4], 4 µg/mL; in [5], 8 µg/mL; in series [6], 4 µg/mL; in [7] it was 0.5 µg/mL; in series [8], 8 µg/mL. In addition, the “MIC (minimum inhibitory concentration)” value in series [9] stood at 0.25 µg/mL; in the series on Candida krusei ATCC 6258 it was 2 µg/mL; in [10] it was 1 µg/mL; in [11], 1 µg/mL; in series [12], 4 µg/mL; in [13], 2 µg/mL. The figures for the “Acute toxicity LD50” value in “Acute toxicity in mice” (abdominal) and in “Acute toxicity in mice” (oral) were above 15 mg/kg and above 1000 mg/kg, respectively. Besides, the deaths result in the series “Acute toxicity in mice” (mice, oral administration dosage of 1,000 mg/kg) is recorded as “no case of death observed”. Moreover, the Autopsy findings entry is “Nothing” in “Acute toxicity in mice” (mouse, in vivo) and “Nothing” in “Acute toxicity in mice” (mouse, in vivo, po). Besides, the “general symptoms and body weight” value in “Acute toxicity in mice” (mouse, in vivo) is listed as “no abnormalities”.
